Results reported in patent publication US9567345B2, “Pharmaceutically active pyrazolo-triazine derivatives” (LEAD DISCOVERY CENTER GMBH, priority 2012, dated 2017).
Where two headings read alike, the source gives them in different places.

Legend:
Format in all cases: biochemical
[1] = target: T1, CDK2/CycA (Homo sapiens, UniProt P24941); test: CDK2 Enzymatic Activity Assay (Lance Kinase Activity Assay, FRET); conditions: for IC50: Table 5B, class symbols per IC50 [nM] ranges of b581, read-out: CDK2: Selectivity of CDK7 inhibition over CDK2 inhibition
T1 construct: purchased Proqinase
Method in brief: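 Compounds in an 8-step, 1:3 dilution series were incubated 1 h at room temperature with CDK2/CycA, ULight-MBP substrate and ATP in pH 7.5 HEPES buffer.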

[2] = target: CDK7/CycH/Mat1 (Homo sapiens, UniProt P50613); test: CDK7 Enzymatic Activity Assay (Lance Kinase Activity Assay, FRET)
Method in brief: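 TR-FRET (LANCE) kinase assay: CDK7/CycH/Mat1 phosphorylates Ulight-MBP substrate for 1 h at room temperature in pH 7.5 HEPES buffer; detection 1 h with Eu-labelled anti-phospho antibody plus EDTA.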

[3] = target: CDK9/Cyclin T1 (Homo sapiens, UniProt P50750); test: CDK9 Enzymatic Activity Assay (Lance Kinase Activity Assay, FRET); conditions: for IC50: Table 5B, class symbols per IC50 [nM] ranges of b581, read-out: CDK9: Selectivity of CDK7 inhibition over CDK9 inhibition
Method in brief: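 CDK9/cyclin T1 phosphorylation of a ULight-MBP peptide was run for 1 h at room temperature in pH 7.5 HEPES buffer with MgCl2, EGTA, DTT and Tween-20. It was followed by 1 h with Eu-anti-phospho-MBP antibody (4 nM) in EDTA detection buffer. TR-FRET loss gave IC50 from 8-point, 1:3 sigmoidal dose-response curves.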

[4] = CDK7/CycH/Mat1, 25 μM ATP final, class ranges, read-out: CDK7: IC50 [nM] for CDK7 inhibition

Sequence of CDK9/Cyclin T1 (P50750 whole entry): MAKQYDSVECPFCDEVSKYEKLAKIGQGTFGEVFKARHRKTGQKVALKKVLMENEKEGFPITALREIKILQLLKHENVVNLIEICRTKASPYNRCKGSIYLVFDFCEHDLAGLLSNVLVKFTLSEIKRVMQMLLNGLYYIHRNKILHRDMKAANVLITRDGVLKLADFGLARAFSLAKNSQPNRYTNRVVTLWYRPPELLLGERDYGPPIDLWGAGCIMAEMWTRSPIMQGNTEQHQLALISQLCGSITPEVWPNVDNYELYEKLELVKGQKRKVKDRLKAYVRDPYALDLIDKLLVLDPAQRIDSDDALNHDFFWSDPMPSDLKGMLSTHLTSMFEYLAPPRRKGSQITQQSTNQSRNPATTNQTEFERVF
Sequence of CDK9/Cyclin T1 (O60563 whole entry partner): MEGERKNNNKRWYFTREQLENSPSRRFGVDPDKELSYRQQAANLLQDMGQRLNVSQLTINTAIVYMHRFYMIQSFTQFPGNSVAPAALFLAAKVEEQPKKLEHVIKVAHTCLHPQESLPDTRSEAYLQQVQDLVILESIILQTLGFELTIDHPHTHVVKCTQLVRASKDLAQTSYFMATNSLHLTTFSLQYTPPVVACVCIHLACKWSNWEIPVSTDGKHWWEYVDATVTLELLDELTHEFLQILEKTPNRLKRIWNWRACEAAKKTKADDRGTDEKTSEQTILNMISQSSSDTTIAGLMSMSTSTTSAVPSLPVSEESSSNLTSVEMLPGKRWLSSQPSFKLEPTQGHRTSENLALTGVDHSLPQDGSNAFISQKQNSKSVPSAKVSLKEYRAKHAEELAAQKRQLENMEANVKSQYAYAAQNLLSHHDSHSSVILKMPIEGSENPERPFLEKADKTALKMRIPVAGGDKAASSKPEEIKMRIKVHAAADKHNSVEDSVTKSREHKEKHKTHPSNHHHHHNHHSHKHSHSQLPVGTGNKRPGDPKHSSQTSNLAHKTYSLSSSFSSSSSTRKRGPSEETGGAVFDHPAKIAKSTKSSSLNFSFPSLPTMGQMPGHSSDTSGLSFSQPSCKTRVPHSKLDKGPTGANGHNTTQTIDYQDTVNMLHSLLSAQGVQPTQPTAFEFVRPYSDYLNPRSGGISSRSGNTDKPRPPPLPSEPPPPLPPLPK
Sequence of CDK7/CycH/Mat1 (P50613 whole entry): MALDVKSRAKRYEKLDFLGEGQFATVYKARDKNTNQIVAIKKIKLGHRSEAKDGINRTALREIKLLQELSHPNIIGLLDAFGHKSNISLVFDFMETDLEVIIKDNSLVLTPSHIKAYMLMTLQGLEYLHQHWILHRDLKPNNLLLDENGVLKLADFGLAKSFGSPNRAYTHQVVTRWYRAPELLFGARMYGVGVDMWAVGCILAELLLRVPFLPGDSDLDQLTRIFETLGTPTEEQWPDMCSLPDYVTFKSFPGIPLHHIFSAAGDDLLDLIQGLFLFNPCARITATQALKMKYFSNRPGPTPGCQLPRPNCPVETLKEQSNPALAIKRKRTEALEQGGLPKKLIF

Row | SMILES | IC50 [1] | IC50 [2, 4] | IC50 [3] | Selectivity CDK7 over CDK2 ([1]; Table 6) | IC50 ([2]; Table 6, read-out: IC50 CDK7) | Selectivity CDK7 over CDK9 ([3]; Table 6)
1 | CC(C)c1cnn2c(NCc3ccccc3S(=O)(=O)N3CCOCC3)nc(O[C@@H]3CCCNC3)nc12 [(VII-099), (R)-8-isopropyl-N-(2-(morpholinosulfonyl)benzyl)-2-(piperidin-3-yloxy)pyrazolo[1,5-a][1,3,5]triazin-4-amine] | 500 to 2500 nM | < 5 nM | > 2500 nM |  |  | 
2 | CC(C)c1cnn2c(NCc3ccccc3OS(C)(=O)=O)nc(O[C@@H]3CCCNC3)nc12 [(VII-147), (R)-2-(((8-isopropyl-2-(piperidin-3-yloxy)pyrazolo[1,5-a][1,3,5]triazin-4-yl)amino)methyl)phenyl methanesulfonate] | 50 to 500 nM | 5 to 10 nM | > 2500 nM |  |  | 
3 | CC(C)c1cnn2c(NCc3cccc(Cl)c3Cl)nc(O[C@@H]3CCCNC3)nc12 [(VII-103), (R)-N-(2,3-dichlorobenzyl)-8-isopropyl-2-(piperidin-3-yloxy)pyrazolo[1,5-a][1,3,5]triazin-4-amine] | 50 to 500 nM | 10 to 25 nM | 50 to 500 nM |  |  | 
4 | CC(=O)Oc1ccccc1CNc1nc(O[C@@H]2CCCNC2)nc2c(C(C)C)cnn12 [(VII-145), (R)-2-(((8-isopropyl-2-(piperidin-3-yloxy)pyrazolo[1,5-a][1,3,5]triazin-4-yl)amino)methyl)phenyl acetate] | 500 to 2500 nM | 10 to 25 nM | 500 to 2500 nM |  |  | 
5 | CC(C)c1cnn2c(NCc3ccccc3-c3nnn(C)n3)nc(O[C@@H]3CCCNC3)nc12 [(VII-37), (R)-8-isopropyl-N-(2-(2-methyl-2H-tetrazol-5-yl)benzyl)-2-(piperidin-3-yloxy)pyrazolo[1,5-a][1,3,5]triazin-4-amine] | < 50 nM | < 5 nM | > 2500 nM |  |  | 
6 | CC(C)c1cnn2c(NCc3ccccc3NC(=O)NCc3ccccc3)nc(O[C@@H]3CCCNC3)nc12 [(VII-113), (R)-1-benzyl-3-(2-(((8-isopropyl-2-(piperidin-3-yloxy)pyrazolo[1,5-a][1,3,5]triazin-4-yl)amino)methyl)phenyl)urea] | > 2500 nM | 10 to 25 nM | > 2500 nM |  |  | 
7 | CSc1ccccc1CNc1nc(O[C@@H]2CCCNC2)nc2c(C(C)C)cnn12 [(VII-118), (R)-8-isopropyl-N-(2-(methylthio)benzyl)-2-(piperidin-3-yloxy)pyrazolo[1,5-a][1,3,5]triazin-4-amine] | 50 to 500 nM | 5 to 10 nM | 50 to 500 nM |  |  | 
8 | CNC(=O)c1ccccc1CNc1nc(O[C@@H]2CCCNC2)nc2c(C(C)C)cnn12 [(VII-108), (R)-2-(((8-isopropyl-2-(piperidin-3-yloxy)pyrazolo[1,5-a][1,3,5]triazin-4-yl)amino)methyl)-N-methylbenzamide] | 50 to 500 nM | < 5 nM | > 2500 nM |  |  | 
9 | CC(C)c1cnn2c(NCc3cccc4c3ccc[n+]4[O-])nc(O[C@@H]3CCCNC3)nc12 [(VII-30), (R)-5-(((8-isopropyl-2-(piperidin-3-yloxy)pyrazolo[1,5-a][1,3,5]triazin-4-yl)amino)methyl)quinoline 1-oxide] | 500 to 2500 nM | < 5 nM | < 50 nM |  |  | 
10 | CC(C)c1cnn2c(NCc3cccc4cc[n+]([O-])cc34)nc(O[C@@H]3CCCNC3)nc12 [(VII-32), (R)-8-(((8-isopropyl-2-(piperidin-3-yloxy)pyrazolo[1,5-a][1,3,5]triazin-4-yl)amino)methyl)isoquinoline 2-oxide] | 50 to 500 nM | < 5 nM | 50 to 500 nM |  |  | 
11 | CC(C)c1cnn2c(NCc3ccccc3-n3cccn3)nc(OC3CCNCC3)nc12 [(VII-01), N-(2-(1H-pyrazol-1-yl)benzyl)-8-isopropyl-2-(piperidin-4-yloxy) pyrazolo[1,5-a][1,3,5]triazin-4-amine] | 50 to 500 nM | < 5 nM | > 2500 nM |  |  | 
12 | CC(C)c1cnn2c(NCc3ccccc3-n3cccn3)nc(OC3C[C@H]4CNC[C@@H]34)nc12 (stereo partly drawn) [(VII-123), N-(2-(1H-pyrazol-1-yl)benzyl)-2-((1R,5S)-3-azabicyclo[3.2.0]heptan-6-yloxy)-8-isopropylpyrazolo[1,5-a][1,3,5]triazin-4-amine] | 50 to 500 nM | < 5 nM | > 2500 nM |  |  | 
13 | CC(C)c1cnn2c(NCc3ccccc3Oc3ccccn3)nc(O[C@@H]3CCCNC3)nc12 [(VII-098), (R)-8-isopropyl-2-(piperidin-3-yloxy)-N-(2-(pyridin-2-yloxy)benzyl)pyrazolo[1,5-a][1,3,5]triazin-4-amine] | 500 to 2500 nM | 10 to 25 nM | > 2500 nM |  |  | 
14 | CC(C)c1cnn2c(NCc3ccccc3-c3nnnn3C)nc(O[C@@H]3CCCNC3)nc12 [(VII-29), (R)-8-isopropyl-N-(2-(1-methyl-1H-tetrazol-5-yl)benzyl)-2-(piperidin-3-yloxy)pyrazolo[1,5-a][1,3,5]triazin-4-amine] | 50 to 500 nM | < 5 nM | > 2500 nM | 394 fold | < 5 nM | 3255 fold
15 | CC(C)c1cnn2c(NCc3ccccc3N3CCCC3=O)nc(O[C@@H]3CCCNC3)nc12 [(VII-39), (R)-1-(2-(((8-isopropyl-2-(piperidin-3-yloxy)pyrazolo[1,5-a][1,3,5]triazin-4-yl)amino)methyl)phenyl)pyrrolidin-2-one] | 50 to 500 nM | < 5 nM | > 2500 nM |  |  | 

Other lines, results leading:

Row | IC50 [1] | IC50 [2, 4] | IC50 [3] | Selectivity CDK7 over CDK2 ([1]; Table 6) | IC50 ([2]; Table 6, read-out: IC50 CDK7) | Selectivity CDK7 over CDK9 ([3]; Table 6) | SMILES
16 | > 2500 nM | > 25 nM | > 2500 nM |  |  |  | CC(C)c1cnn2c(NCc3ccccc3-n3cccn3)nc(N3CCC(N)C3)nc12 (stereo not drawn) [(VIII-054), N-(2-(1H-pyrazol-1-yl)benzyl)-2-(3-aminopyrrolidin-1-yl)-8-isopropylpyrazolo[1,5-a][1,3,5]triazin-4-amine]
17 | > 2500 nM | < 5 nM | > 2500 nM |  |  |  | CC(C)c1cnn2c(NCc3ccccc3-n3cccn3)nc(C(=O)NCC3CCNC3)nc12 (stereo not drawn) [(XII-3), 4-((2-(1H-pyrazol-1-yl)benzyl)amino)-8-isopropyl-N-(pyrrolidin-3-ylmethyl)pyrazolo[1,5-a][1,3,5]triazine-2-carboxamide]
18 | > 2500 nM | > 25 nM | > 2500 nM |  |  |  | COC(=O)C(CN)Nc1nc(NCc2ccccc2-n2cccn2)n2ncc(C(C)C)c2n1 (stereo not drawn) [(VIII-055), methyl 2-((4-((2-(1H-pyrazol-1-yl)benzyl)amino)-8-isopropylpyrazolo[1,5-a][1,3,5]triazin-2-yl)amino)-3-aminopropanoate]
19 | > 2500 nM | > 25 nM | > 2500 nM |  |  |  | CC(C)c1cnn2c(NCc3ccccc3-n3cccn3)nc(N(C)CCCN3CCCCC3)nc12 [(VIII-049), N4-(2-(1H-pyrazol-1-yl)benzyl)-8-isopropyl-N2-methyl-N2-(3-(piperidin-1-yl)propyl)pyrazolo[1,5-a][1,3,5]triazine-2,4-diamine]
20 | > 2500 nM | > 25 nM | > 2500 nM |  |  |  | CC(C)c1cnn2c(NCc3ccccc3-n3cccn3)nc(NCCN3CCCC3)nc12 [(VIII-040), N4-(2-(1H-pyrazol-1-yl)benzyl)-8-isopropyl-N2-(2-(pyrrolidin-1-yl)ethyl)pyrazolo[1,5-a][1,3,5]triazine-2,4-diamine]
21 | 50 to 500 nM | < 5 nM | 500 to 2500 nM |  |  |  | CC(C)c1cnn2c(NCc3ccccc3-n3cncn3)nc([S+]([O-])C3CCNCC3)nc12 (stereo not drawn) [(X-4), N-(2-(1H-1,2,4-triazol-1-yl)benzyl)-8-isopropyl-2-(piperidin-4-ylsulfinyl)pyrazolo[1,5-a][1,3,5]triazin-4-amine]
22 | > 2500 nM | > 25 nM | > 2500 nM |  |  |  | CC(C)c1cnn2c(NCc3ccccc3-n3cccn3)nc(CN(C)CCN3CCCC3)nc12 [(XXX-3), N-(2-(1H-pyrazol-1-yl)benzyl)-8-isopropyl-2-((methyl(2-(pyrrolidin-1-yl)ethyl)amino)methyl)pyrazolo[1,5-a][1,3,5]triazin-4-amine]
23 | 500 to 2500 nM | < 5 nM | > 2500 nM |  |  |  | CC(C)c1cnn2c(NCc3ccccc3-n3cccn3)nc(N3CCC4(CCCN4)C3)nc12 (stereo not drawn) [(VIII-17), N-(2-(1H-pyrazol-1-yl)benzyl)-8-isopropyl-2-(1,7-diazaspiro[4.4]nonan-7-yl)pyrazolo[1,5-a][1,3,5]triazin-4-amine]
24 | 500 to 2500 nM | < 5 nM | > 2500 nM |  |  |  | CC(C)c1cnn2c(NCc3ccccc3-n3cccn3)nc(N3CCC4(CCCN4)CC3)nc12 [(VIII-11), N-(2-(1H-pyrazol-1-yl)benzyl)-8-isopropyl-2-(1,8-diazaspiro[4.5]decan-8-yl)pyrazolo[1,5-a][1,3,5]triazin-4-amine]
25 | 500 to 2500 nM | 10 to 25 nM | > 2500 nM |  |  |  | CC(C)c1cnn2c(NCc3ccccc3-c3ccccc3)nc([S+]([O-])C3CCNCC3)nc12 (stereo not drawn) [(X-3), N-([1,1′-biphenyl]-2-ylmethyl)-8-isopropyl-2-(piperidin-4-ylsulfinyl)pyrazolo[1,5-a][1,3,5]triazin-4-amine]
